Test results: paper PMC6522510 (Nature Communications, 2019)
pEC50: −log10 of the molar value.

Columns and labels:
MV4-11 [1] = experiment: Secondary dose-response HTS, Cell Titer Glo; assay type: cell-based, human; settings: secondary high-throughput screen, MV4-11; for pEC50: Homo sapiens, read-out: average effective concentration, MV4-11
CHRF288-11 [2] = experiment: Secondary dose-response HTS, Cell Titer Glo; assay type: cell-based, human; settings: secondary high-throughput screen, CHRF288-11; for pEC50: Homo sapiens, HTS, read-out: average effective concentration, CHRF288-11
CMK [3] = experiment: Secondary dose-response HTS, Cell Titer Glo; assay type: cell-based, human; settings: secondary high-throughput screen, CMK
CMS [4] = experiment: Secondary dose-response HTS, Cell Titer Glo; assay type: cell-based, human; settings: secondary high-throughput screen, CMS
ML2 = experiment: Secondary dose-response HTS, Cell Titer Glo; assay type: cell-based, human; settings: secondary high-throughput screen, ML-2; for pEC50: Homo sapiens, read-out: average effective concentration, ML-2
U937 [5] = experiment: Secondary dose-response HTS, Cell Titer Glo; assay type: cell-based, human; settings: secondary high-throughput screen, U937; for pEC50: Homo sapiens, U-937, read-out: average effective concentration, U937
MOLM-13 [6] = experiment: cells; set-up: species or system AML cell lines (8); Secondary HTS, 10-point dose-response in triplicate, Cell Titer Glo viability, four-parameter fit EC50; settings: Homo sapiens, MOLM-13, 72 h, read-out: MOLM-13
MV4-11 [7] = experiment: cells; set-up: species or system AML cell lines (8); Secondary HTS, 10-point dose-response in triplicate, Cell Titer Glo viability, four-parameter fit EC50; settings: Homo sapiens, MV4-11, 72 h, read-out: MV4-11
CMK [8] = experiment: cells; set-up: species or system AML cell lines (8); Secondary HTS, 10-point dose-response in triplicate, Cell Titer Glo viability, four-parameter fit EC50; settings: Homo sapiens, CMK, 72 h, read-out: CMK
CHRF288-11 [9] = experiment: cells; set-up: species or system AML cell lines (8); Secondary HTS, 10-point dose-response in triplicate, Cell Titer Glo viability, four-parameter fit EC50; settings: 72 h, read-out: CHRF288-11
CMS [10] = experiment: cells; set-up: species or system AML cell lines (8); Secondary HTS, 10-point dose-response in triplicate, Cell Titer Glo viability, four-parameter fit EC50; settings: 72 h, read-out: CMS
M07e = experiment: cells; set-up: species or system AML cell lines (8); Secondary HTS, 10-point dose-response in triplicate, Cell Titer Glo viability, four-parameter fit EC50; settings: M-07e, 72 h, read-out: M07e
U937 [11] = experiment: cells; set-up: species or system AML cell lines (8); Secondary HTS, 10-point dose-response in triplicate, Cell Titer Glo viability, four-parameter fit EC50; settings: Homo sapiens, U-937, 72 h, read-out: U937
MOLM-13 [12] = experiment: Secondary dose-response HTS, Cell Titer Glo; assay type: cell-based, human; settings: Homo sapiens; secondary high-throughput screen; MOLM-13; read-out: average effective concentration, MOLM-13

Row | pEC50 (MV4-11 [7]) | pEC50 (U937 [11]) | pEC50 (MOLM-13 [12]) | SMILES | pEC50 (CMK [8]) | pEC50 (ML2) | pEC50 (CHRF288-11 [9]) | pEC50 (CMS [10]) | pEC50 (M07e) | pEC50 (CHRF288-11 [2]) | other results
1 | – | – | – | Cc1noc(-c2ccc(-c3ccc(CC(=O)O)cc3)cc2)c1NC(=O)O[C@H](C)c1ccccc1 [AM-095] | – | – | – | – | – | – | average effective concentration, MV4-11 (MV4-11 [1]): Inactive; average effective concentration, CHRF288-11 (CHRF288-11 [2]): Inactive; average effective concentration, CMK (CMK [3]): Inactive; average effective concentration, CMS (CMS [4]): Inactive; average effective concentration, ML-2 (ML2): Inactive; average effective concentration, U937 (U937 [5]): Inactive
2 | < 5.00 | – | – | CON(C)C(=O)N1N=C(c2cc(F)ccc2F)S[C@@]1(CCCN)c1ccccc1 [ARRY-520] | < 5.00 | – | – | – | – | – | pEC50 (MOLM-13 [6]): < 5.00
3 | – | < 5.00 | – | CN[C@@H](C)C(=O)N[C@H]1CN(C(=O)CC(C)C)CC[C@H]2CC[C@@H](C(=O)NC(c3ccccc3)c3ccccc3)N2C1=O [AT-406] | < 5.00 | 5.18 | < 5.00 | < 5.00 | < 5.00 | – | pEC50 (MV4-11 [1]): 9.00; pEC50 (MOLM-13 [6]): < 5.00
4 | < 5.00 | – | – | C[C@H]1[C@H](OC(=O)CCC(=O)O)O[C@@H]2O[C@@]3(C)CC[C@H]4[C@H](C)CC[C@@H]1[C@@]24OO3 [Artesunate] | < 5.00 | – | – | – | – | – | –
5 | – | – | – | Nc1nccc2c1ncn2C1C=C(CO)C(O)C1O (stereo not shown) [Compound 3-DEAZANEPLANOCIN] | – | – | – | – | – | – | average effective concentration, MV4-11 (MV4-11 [1]): Inactive; average effective concentration, CMS (CMS [4]): Inactive; average effective concentration, ML-2 (ML2): Inactive; average effective concentration, U937 (U937 [5]): Inactive
6 | – | – | – | Nc1nc(=O)n([C@H]2C[C@H](O)[C@@H](CO)O2)cc1F [Compound 5-FLUORODEOXYCYTIDINE] | – | – | – | – | – | – | average effective concentration, MV4-11 (MV4-11 [1]): Inactive; average effective concentration, CMS (CMS [4]): Inactive; average effective concentration, U937 (U937 [5]): Inactive
7 | < 5.00 | < 5.00 | – | Cc1nc(Nc2ncc(C(=O)Nc3c(C)cccc3Cl)s2)cc(N2CCN(CCO)CC2)n1 [DASATINIB] | < 5.00 | < 5.00 | – | < 5.00 | < 5.00 | 5.08 | pEC50 (MOLM-13 [6]): < 5.00
8 | < 5.00 | < 5.00 | 6.10 | O=c1oc2c(O)c(O)cc3c(=O)oc4c(O)c(O)cc1c4c23 [ELLAGIC ACID] | < 5.00 | 6.29 | < 5.00 | < 5.00 | < 5.00 | – | –
9 | < 5.00 | < 5.00 | < 5.00 | CN[C@@H](C)C(=O)N[C@H](C(=O)N1CCC[C@H]1c1nc(C(=O)c2ccc(F)cc2)cs1)C1CCCCC1 [LCL-161] | < 5.00 | 5.30 | – | < 5.00 | < 5.00 | 5.07 | –
10 | – | – | – | Cc1ccc(C(=O)Nc2ccc(Oc3cc4cnn(C)c4cc3-c3cn[nH]c3)c(F)c2)c(=O)n1-c1ccc(F)cc1 [LY2801653] | – | – | – | – | – | – | average effective concentration, MV4-11 (MV4-11 [1]): Inactive; average effective concentration, CHRF288-11 (CHRF288-11 [2]): Inactive; average effective concentration, CMK (CMK [3]): Inactive; average effective concentration, CMS (CMS [4]): Inactive; average effective concentration, ML-2 (ML2): Inactive; average effective concentration, U937 (U937 [5]): Inactive
11 | – | – | 5.72 | CCN1CCN(Cc2ccc(Nc3ncc(F)c(-c4cc(F)c5nc(C)n(C(C)C)c5c4)n3)nc2)CC1 [LY2835219] | < 5.00 | 5.40 | < 5.00 | < 5.00 | < 5.00 | – | pEC50 (MV4-11 [1]): 5.72; pEC50 (U937 [5]): 5.70
12 | – | – | – | CC1CS(=O)(=O)CCN1/N=C/c1ccc([N+](=O)[O-])o1 (stereo not shown) [NIFURTIMOX] | – | 5.07 | – | – | – | – | pEC50 (CMK [3]; Homo sapiens, read-out: average effective concentration, CMK): 5.64; pEC50 (CMS [4]; Homo sapiens, HTS, read-out: average effective concentration, CMS): 5.30; pEC50 (U937 [5]): 5.57
13 | < 5.00 | < 5.00 | – | O=C(c1cc(Cc2n[nH]c(=O)c3ccccc23)ccc1F)N1CCN(C(=O)C2CC2)CC1 [OLAPARIB] | < 5.00 | < 5.00 | – | < 5.00 | < 5.00 | < 5.00 | pEC50 (MOLM-13 [6]): < 5.00
14 | – | < 5.00 | 7.32 | Nc1nc2[nH]cc(CCc3ccc(C(=O)N[C@@H](CCC(=O)O)C(=O)O)cc3)c2c(=O)[nH]1 [PEMETREXED] | < 5.00 | 7.18 | – | < 5.00 | < 5.00 | 7.00 | pEC50 (MV4-11 [1]): 7.46
15 | – | – | 5.28 | O=C(O)C[C@H](O)C[C@H](O)/C=C/c1c(C2CC2)nc2ccccc2c1-c1ccc(F)cc1 [PITAVASTATIN] | < 5.00 | 5.29 | – | < 5.00 | < 5.00 | 5.66 | pEC50 (MV4-11 [1]): 5.12; pEC50 (U937 [5]): 5.07
16 | – | < 5.00 | 7.17 | Cc1nc2ccc(CN(C)c3ccc(C(=O)N[C@@H](CCC(=O)O)C(=O)O)s3)cc2c(=O)[nH]1 [RALTITREXED] | < 5.00 | 7.00 | – | < 5.00 | < 5.00 | 7.02 | pEC50 (MV4-11 [1]): 7.57
17 | – | < 5.00 | – | CCOc1cc(C(C)(C)C)ccc1C1=N[C@@](C)(c2ccc(Cl)cc2)[C@@](C)(c2ccc(Cl)cc2)N1C(=O)N1CCN(CCCS(C)(=O)=O)CC1 [RG7112] | < 5.00 | – | < 5.00 | < 5.00 | – | – | –
18 | < 5.00 | < 5.00 | < 5.00 | O=C(O)c1ccc2c(c1)nc(Nc1cccc(Cl)c1)c1ccncc12 [SILMITASERTIB] | < 5.00 | < 5.00 | < 5.00 | < 5.00 | < 5.00 | – | –
19 | < 5.00 | < 5.00 | < 5.00 | CCC(C)(C)C(=O)O[C@H]1C[C@@H](C)C=C2C=C[C@H](C)[C@H](CC[C@@H]3C[C@@H](O)CC(=O)O3)[C@H]21 [SIMVASTATIN] | < 5.00 | < 5.00 | – | < 5.00 | < 5.00 | 5.39 | –
20 | 8.14 | – | – | CNC(=O)c1cc(Oc2ccc(NC(=O)Nc3ccc(Cl)c(C(F)(F)F)c3)cc2)ccn1 [Sorafenib] | < 5.00 | – | < 5.00 | < 5.00 | < 5.00 | – | –
21 | < 5.00 | – | < 5.00 | COc1ccc(C[C@@H](C)[C@@H](C)Cc2ccc(OC)c(OC)c2)cc1OC [TERAMEPROCOL] | < 5.00 | < 5.00 | < 5.00 | < 5.00 | < 5.00 | – | pEC50 (U937 [5]): < 5.00
22 | < 5.00 | < 5.00 | – | Oc1nc(-c2ccc(C(F)(F)F)cc2)nc2c1CSCC2 [XAV939] | < 5.00 | 5.55 | < 5.00 | < 5.00 | < 5.00 | – | pEC50 (MOLM-13 [6]): < 5.00
23 | < 5.00 | < 5.00 | 5.96 | O=c1ncccn1[C@@H]1O[C@H](CO)[C@@H](O)[C@H]1O [ZEBULARINE] | < 5.00 | 6.14 | – | < 5.00 | < 5.00 | 5.05 | –

Row | SMILES | pEC50 (MV4-11 [7]) | pEC50 (U937 [11]) | pEC50 (MOLM-13 [12]) | pEC50 (CMK [8]) | pEC50 (ML2) | pEC50 (CHRF288-11 [9]) | pEC50 (CMS [10]) | pEC50 (M07e) | pEC50 (CHRF288-11 [2]) | other results
24 | O=C(NOC[C@H](O)CO)c1ccc(F)c(F)c1Nc1ccc(I)cc1F [PD-0325901] | < 5.00 | < 5.00 | 6.04 | < 5.00 | 9.00 | – | < 5.00 | < 5.00 | < 5.00 | –
25 | O=C1c2c(O)ccc(O)c2C(=O)c2c(NCCNCCO)ccc(NCCNCCO)c21 [SJ000285321, MITOXANTHRONE] | – | 7.59 | – | 7.37 | – | 7.62 | 7.07 | 7.48 | – | pEC50 (MOLM-13 [6]): 8.09
